Data set [1] addresses NEDD8-activating enzyme (NAE) (Homo sapiens, UniProt Q8TBC4). Nature of the data set: E1-E2 transthiolation HTRF assay, NAE. The class given is biochemical. An excerpt:
(§1) 592 E1-E2 Transthiolation Assays
(§2) 593 An Homogeneous Time-Resolved Fluorescence (HTRF) enzyme assay was employed to evaluate
(§3) 594 compound activity against ATG7 as previously described (11). In this assay, a Flag-tagged ATG8 homolog
(§4) 595 (GABA type A receptor-associated protein; GABARAP) is activated by ATG7 and then transthiolated to a
(§5) 596 GST-tagged E2 (ATG3). The product of the enzyme reaction, Flag-GABARAP-ATG3-GST, is quantified
(§6) 597 by measuring FRET between Europium-Cryptate labelled monoclonal anti-Flag M2 (CisBio International,
(§7) 598 Cat# 61FG2KLB) and PHYCOLINK goat anti-GST allophycocyanin (Prozyme, PJ252p1). The activation
(§8) 599 and transthiolation of ubiquitin by Ubiquitin Activating Enzyme, activation and transthiolation of NEDD8
(§9) 600 by NEDD8 Activating Enzyme. […]
(§10) 606 Compounds were incubated with mature stage V gametocytes ([…], kind gift from Professor Chris Janse
(§11) 607 at Leiden University Medical Center (LUMC), the Netherlands) for 48 hours in 384 well plates before
(§12) 608 gamete formation was triggered by a drop in temperature and addition of xanthurenic acid. […]
(§13) 611 Multiple data sets using different gametocyte cultures were collected on each of two separate days.
(§14) 613 Activity against exoerythrocytic stages
(§15) 614 Primary human hepatocytes (H1500.H15B+ Lot No. HC10-10 Cryopreserved human hepatocytes) […]
In general terms: TR-FRET usually uses a lanthanide donor and a delayed reading to cut background.

The target in data set [2] is SUMO-activating enzyme (SAE) (Homo sapiens, UniProt Q9UBT2). Nature of the data set: biochemical. To be noted: read-out: SAE IC50 HTRF.
Excerpt: as §1, §2, §3, §4, §5, §6, §7, §8, §9, §10, §11, §12, §13, §14, §15

A short description of the next data set: Caco2 permeability. The class given is in vitro ADME. To be noted: human, Caco-2. For orientation: Caco-2 cells form a polarised layer with tight junctions and transporters.
The next data set concerns P. falciparum Dd2. Nature of the data set: 72-h sensitivity of wildtype Dd2 parent line. The class given is cell-based. To be noted: Plasmodium falciparum, 72-h exposure. The protocol: 700 the drug plate. Lowest drug treatment and a lethal dose of chloroquine (200 nM) served as reference
701 controls. Growth inhibition was analysed after 72 h using the Renilla-Glo(R) Luciferase Assay System (ref
702 no E2750 Promega) and the GloMax® Discover Multimode Microplate Reader (Promega), and IC50 values
703 were obtained from corrected dose-response curves using GraphPad Prism (version 8; GraphPad Software). […]
729 Cam 3.II_Rev (25) trophozoite-infected RBCs (25-30 h p.i.) were incubated with inhibitor for 3 h at 10%
730 hematocrit and 5% parasitemia. The RBC pellet was washed 3 x in PBS + cOmplete. Cells were centrifuged
731 at 380 x g for 5 min and the pelleted cells lysed by resuspension in PBS + 0.05% saponin for 5 min on ice.

The target in data set [3] is T1, PfYRS (Plasmodium falciparum, UniProt Q8IAR7). Nature of the data set: ATP consumption by PfYRS (Kinase-Glo). The class given is biochemical. As for the experimental part:
(§16) 804 An intron was detected in the PftRNATyr sequence, that was not indicated in PlasmoDB. A T7 RNA
(§17) 805 polymerase promoter sequence was added to the 5’ end of the DNA sequence of P. falciparum and H.
(§18) 806 sapiens tRNATyr. This DNA template and its complementary strand were custom-synthesized by Sigma-
(§19) 807 Aldrich. Two oligonucleotides were annealed at 95°C for 5 min and the double-stranded DNA template
(§20) 808 was used for in vitro transcription. The transcription reaction was incubated at 37°C overnight. The reaction
(§21) 809 mixture consists of template DNA, T7 RNA polymerase and NTP mix as per manufacturer's instructions
(§22) 810 (HiScribe™ T7 Quick High Yield RNA Synthesis Kit, NEB). On the following day, the reaction mixture
(§23) 811 was treated with DNase I at 37°C for 15 min. tRNA was purified using RNA clean-up spin columns
812 (Monarch® RNA Cleanup Kit, NEB) to remove contaminants from the transcription reaction. […]
820 was sealed and analysed using StepOnePlus Real-Time PCR system (Applied Biosystems). […]
822 as the first derivative curve of the raw fluorescence values. […]
824 values were calculated from DTm using the equation: ln(KD/[L]) = -131.5 x (∆Tm/Tm,apo) - 1.9, where [L] […]
828 Consumption of ATP by YRS was measured using a luciferase-based assay as per the manufacturer’s […]
836 The aminoacylation activity of YRS was measured by the incorporation of tritiated L-tyrosine into tRNATyr […]
(In general: Kinase-Glo measures the ATP left after a reaction by luminescence.)

The target in data set [4] is T1, PfYRS. Nature of the data set: biochemical. The class given is binding. To be noted: PfYRS incubated with ML901 in the presence of Tyr, ATP and tRNATyr. The protocol:
as §16, §17, §18, §19, §20, §21, §22, §23
812 (Monarch® RNA Cleanup Kit, NEB) to remove contaminants from the transcription reaction.
814 Differential scanning fluorimetry (DSF)
815 PfYRS and HsYRS at 0.1 mg/ml were incubated with various substrates at 37°C for 1-3 h. PfYRS was
816 assayed in 25 mM Tris, pH 8, 150 mM NaCl, 5 mM MgCl2 and 1 mM TCEP. HsYRS was assayed in 50
817 mM Tris, pH 7.5, 150 mM NaCl, 50 mM KCl, 5 mM MgCl2 and 1 mM TCEP. SYPRO Orange (Sigma-
818 Aldrich; 5,000X concentrate in DMSO) was added to the reaction mixture at a final concentration of 2.5X.
819 25 µL of the sample was added into each well of a 96-well qPCR plate (Applied Biosystems). The plate
820 was sealed and analysed using StepOnePlus Real-Time PCR system (Applied Biosystems). The samples
821 were heated from 20°C to 90°C with a 1% continuous gradient. The thermal unfolding curve was plotted
822 as the first derivative curve of the raw fluorescence values. The melting temperature (Tm), defined as the
823 peak of the first derivative curve, was used to assess the thermal stability of protein-ligand complexes. KD
824 values were calculated from DTm using the equation: ln(KD/[L]) = -131.5 x (∆Tm/Tm,apo) - 1.9, where [L]
825 is the concentration of ligand and T is the temperature in Kelvin (40). […]

Where two headings read alike, the source gives them in different places.

T1 sequence (Q8IAR7 entry or part of it): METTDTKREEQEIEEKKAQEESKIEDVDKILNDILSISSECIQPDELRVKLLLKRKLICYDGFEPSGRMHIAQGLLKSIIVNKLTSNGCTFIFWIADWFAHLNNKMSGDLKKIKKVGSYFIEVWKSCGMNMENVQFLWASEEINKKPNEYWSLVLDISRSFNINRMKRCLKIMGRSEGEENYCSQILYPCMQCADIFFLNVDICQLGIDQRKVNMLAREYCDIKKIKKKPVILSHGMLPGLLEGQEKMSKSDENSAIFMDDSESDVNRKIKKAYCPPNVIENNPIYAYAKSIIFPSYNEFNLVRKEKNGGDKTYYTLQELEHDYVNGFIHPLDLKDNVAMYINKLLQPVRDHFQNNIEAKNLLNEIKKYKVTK
Sequence of NEDD8-activating enzyme (NAE) (Q8TBC4 whole entry): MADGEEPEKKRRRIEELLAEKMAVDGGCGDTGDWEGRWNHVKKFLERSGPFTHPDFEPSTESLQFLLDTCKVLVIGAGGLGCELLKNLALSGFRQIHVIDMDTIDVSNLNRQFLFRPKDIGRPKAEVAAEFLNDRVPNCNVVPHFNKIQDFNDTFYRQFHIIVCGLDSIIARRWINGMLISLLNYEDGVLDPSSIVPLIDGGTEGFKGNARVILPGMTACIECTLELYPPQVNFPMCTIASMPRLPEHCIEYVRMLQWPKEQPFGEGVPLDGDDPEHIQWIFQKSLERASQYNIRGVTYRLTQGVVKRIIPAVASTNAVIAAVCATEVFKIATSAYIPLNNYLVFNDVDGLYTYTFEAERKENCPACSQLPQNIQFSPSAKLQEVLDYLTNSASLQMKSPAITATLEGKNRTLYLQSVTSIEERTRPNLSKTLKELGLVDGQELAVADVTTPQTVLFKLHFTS
Sequence of NEDD8-activating enzyme (NAE) (Q13564 whole entry partner): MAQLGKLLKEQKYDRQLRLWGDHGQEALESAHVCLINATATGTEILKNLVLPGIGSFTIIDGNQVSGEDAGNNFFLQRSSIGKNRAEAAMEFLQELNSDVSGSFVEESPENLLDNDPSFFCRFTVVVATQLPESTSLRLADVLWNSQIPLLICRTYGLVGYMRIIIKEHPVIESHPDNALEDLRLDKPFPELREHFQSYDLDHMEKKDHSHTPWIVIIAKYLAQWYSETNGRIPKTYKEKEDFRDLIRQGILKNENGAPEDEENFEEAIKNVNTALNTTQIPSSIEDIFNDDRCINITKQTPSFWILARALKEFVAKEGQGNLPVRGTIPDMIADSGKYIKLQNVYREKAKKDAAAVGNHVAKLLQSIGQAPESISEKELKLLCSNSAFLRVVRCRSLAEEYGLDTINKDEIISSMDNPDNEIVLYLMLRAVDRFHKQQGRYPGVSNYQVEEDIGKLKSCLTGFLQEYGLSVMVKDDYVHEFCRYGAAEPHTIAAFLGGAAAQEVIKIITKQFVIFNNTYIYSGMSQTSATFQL
Sequence of SUMO-activating enzyme (SAE) (Q9UBT2 whole entry): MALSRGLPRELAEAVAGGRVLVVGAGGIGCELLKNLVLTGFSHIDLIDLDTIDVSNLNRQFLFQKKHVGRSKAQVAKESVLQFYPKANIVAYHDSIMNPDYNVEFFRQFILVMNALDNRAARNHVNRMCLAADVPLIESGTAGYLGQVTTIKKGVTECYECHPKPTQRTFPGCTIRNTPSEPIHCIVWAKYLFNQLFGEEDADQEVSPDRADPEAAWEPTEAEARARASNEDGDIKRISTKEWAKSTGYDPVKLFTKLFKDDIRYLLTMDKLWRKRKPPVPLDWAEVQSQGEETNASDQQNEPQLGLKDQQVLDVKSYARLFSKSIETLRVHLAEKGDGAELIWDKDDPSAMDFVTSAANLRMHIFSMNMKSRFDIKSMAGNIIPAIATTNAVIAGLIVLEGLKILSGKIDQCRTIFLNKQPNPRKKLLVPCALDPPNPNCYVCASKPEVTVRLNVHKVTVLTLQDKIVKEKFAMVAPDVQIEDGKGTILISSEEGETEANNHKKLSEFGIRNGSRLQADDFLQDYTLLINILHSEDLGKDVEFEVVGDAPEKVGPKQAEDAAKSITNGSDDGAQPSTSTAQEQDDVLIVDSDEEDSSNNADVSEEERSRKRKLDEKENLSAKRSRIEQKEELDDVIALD
Sequence of SUMO-activating enzyme (SAE) (Q9UBE0 whole entry partner): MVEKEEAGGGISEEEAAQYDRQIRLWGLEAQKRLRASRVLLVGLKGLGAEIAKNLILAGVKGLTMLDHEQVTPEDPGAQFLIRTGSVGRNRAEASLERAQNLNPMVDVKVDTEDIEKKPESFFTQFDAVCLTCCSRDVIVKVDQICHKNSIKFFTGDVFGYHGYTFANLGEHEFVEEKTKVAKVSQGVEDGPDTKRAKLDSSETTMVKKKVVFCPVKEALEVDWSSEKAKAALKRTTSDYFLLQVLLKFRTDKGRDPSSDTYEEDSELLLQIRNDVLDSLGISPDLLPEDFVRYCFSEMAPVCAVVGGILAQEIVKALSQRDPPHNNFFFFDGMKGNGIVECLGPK

The IC50 is the concentration at which inhibition is half-maximal. Usually Papp A→B stands for how fast a substance crosses the layer from the apical side. Higher therefore signals fast passage. As a reminder, the Papp B→A is how fast a substance crosses the layer from the basolateral side. Take `Nc1ncnc2c1c(OC(F)F)nn2[C@@H]1O[C@H](COS(N)(=O)=O)[C@@H](O)[C@H]1O` [ML901]: the IC50 in data set [1] was over 1 µM; in data set [2], over 1 µM; with P. falciparum Dd2 it was 0.0022 ± 0.0003 µM; at PfYRS [3] (in the absence of cognate tRNATyr, read-out: IC50 (-PftRNATyr), ATP consumption by PfYRS), over 500 µM; on PfYRS [3] (in the presence of cognate tRNATyr, read-out: IC50 (+PftRNATyr), ATP consumption by PfYRS), 25 µM. The compound further had a Papp A→B in the data set “Caco2 permeability” (A to B) of 0.7 ×10⁻⁶ cm/s. In the data set “Caco2 permeability” (B to A), this compound registered a Papp B→A of 0.82 ×10⁻⁶ cm/s. In addition, the “increase of apparent protein melting point (Tm)” value on PfYRS [4] stood at 15 °C.

For the origin of these results see article PMC7613620, “Reaction hijacking of tyrosine tRNA synthetase as a whole-of-life-cycle antimalarial strategy” (Science (New York, N.Y.), 2022).
